{
  "source": "PubChem BioAssay AID463206",
  "about": "(Broad Institute, 2010)",
  "note": "Activity calls are given as the source filed them.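 The calls were made as follows: active = caspase luminescence falls with dose and the half-maximal concentration AC50 from the fitted curve is at or below a set limit; inconclusive = flat fit at 30 to 70% signal loss, or invalid fit; inactive = AC50 above the limit, or signal rises instead.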",
  "data": [
    {"tested_on": "INS-1E cytokine-induced caspase-3/7, Caspase-Glo luminescence, 48 h", "assay": "inhibitors of cytokine-induced caspase-3/7 activity, dose response, orthogonal assay for beta-cell apoptosis protection project, INS-1E rat cells, luminescence (AID 463206)", "values": [
      {"molecule": "N#CC(c1cccc(Cl)c1)c1ccc2c(C(F)(F)F)cc(C(F)(F)F)nc2n1", "note": "(stereo not given)", "AC50": "> 26 µM (inactive)"},
      {"molecule": "COc1ccc2c(C(=O)NCc3ccc4c(c3)OCO4)c(-c3ccc(S(C)(=O)=O)cc3)sc2c1", "AC50": "> 26 µM (inactive)"},
      {"molecule": "CN1/C(=C\\C(=O)COC(=O)c2ccc(O)c(O)c2)C(C)(C)c2ccccc21", "AC50": "> 26 µM (inactive)"},
      {"molecule": "CC[n+]1ccc(/C=C/c2c[nH]c3ccccc23)cc1", "AC50": "> 26 µM (inactive)"},
      {"molecule": "COc1ccc(CNCCc2c(C)[nH]c3ccc(OC(F)(F)F)cc23)c(OC)c1", "AC50": "> 26 µM (inactive)"},
      {"molecule": "Cc1ccc(-c2c[n+](Cc3ccc(Cl)cc3)c3n2CCC3)cc1", "AC50": "> 26 µM (inactive)"},
      {"molecule": "CCCCCCCCNc1ncnc2ccccc12", "AC50": "> 26 µM (inactive)"},
      {"molecule": "COC(=O)C1=C(C)N(Cc2ccccc2)C(=NCc2ccccc2)N[C@H]1c1cccc(C(F)(F)F)c1", "AC50": "> 26 µM (inactive)"},
      {"molecule": "Cc1ccc(NC(=O)Cc2nn(C)c(=O)c3ccccc23)cc1F", "AC50": "> 26 µM (inactive)"},
      {"molecule": "C=C[C@H](CC(C)C)N(Cc1ccccc1)S(=O)(=O)N(Cc1ccccc1)[C@@H](C=C)CC(C)C", "AC50": "> 26 µM (inactive)"},
      {"molecule": "Cc1cc(N)c2cc(NC(=O)/C=C/c3ccccc3Cl)ccc2n1", "AC50": "23 µM"},
      {"molecule": "Cc1nc(C(=O)NNC(=O)c2c(-c3c(Cl)cccc3Cl)noc2C)cs1", "AC50": "> 26 µM (inactive)"},
      {"molecule": "CCOc1ccc(/C=N/Nc2ccc(Cl)nn2)c(O)c1", "AC50": "> 26 µM (inactive)"},
      {"molecule": "C/C(=N\\NC(=O)c1nnn(-c2nonc2N)c1-c1ccccc1)c1ccccc1O", "AC50": "> 26 µM (inactive)"},
      {"molecule": "CCC1=NN(C(=O)c2cccc(Br)c2)C(O)(c2ccc(Br)cc2)C1", "note": "(stereo not given)", "AC50": "> 26 µM (inactive)"},
      {"molecule": "O=C(CSc1nc2ccccc2c(=O)n1-c1ccccc1)N1CCc2ccccc2C1", "AC50": "> 26 µM (inactive)"},
      {"molecule": "CCCc1sc(N/N=C/c2ccccn2)nc1-c1ccc(Br)cc1", "AC50": "> 26 µM (inactive)"},
      {"molecule": "Oc1[nH]c2ccccc2c1N=NC(=S)N1CCOCC1", "AC50": "> 26 µM (inactive)"},
      {"molecule": "Cc1ccc(N=Nc2c(O)ccc3n[nH]nc23)cc1", "AC50": "> 26 µM (inactive)"},
      {"molecule": "Cc1nc(N2CCN(C(=O)c3ccco3)CC2)c2c3c(sc2n1)CC(C)CC3", "note": "(stereo not given)", "AC50": "> 26 µM (inactive)"},
      {"molecule": "COC(=O)c1sccc1S(=O)(=O)Nc1ccc(N2CCCCC2)cc1", "AC50": "> 26 µM (inactive)"},
      {"molecule": "O=[N+]([O-])c1ccc(NC(=S)NCCc2ccc(Cl)cc2)cc1", "AC50": "> 26 µM (inactive)"},
      {"molecule": "CC[C@@]1(O)C(=O)OCc2c1cc1n(c2=O)Cc2cc3c(N)cccc3nc2-1", "AC50": "0.36 µM"},
      {"molecule": "c1ccc(-c2nc3nonc3nc2-c2ccccc2)cc1", "AC50": "> 26 µM (inactive)"},
      {"molecule": "CC1Sc2ccc(S(=O)(=O)N3CCC(C(=O)Nc4ccc(Cl)cc4)CC3)cc2NC1=O", "note": "(stereo not given)", "AC50": "> 26 µM (inactive)"},
      {"molecule": "N#C/C(=C/c1ccc(N2CCCCCC2)o1)c1ccc(Cl)cc1", "AC50": "> 26 µM (inactive)"},
      {"molecule": "CC(C)(C)c1ccc(-n2ncc3c2CCCC3NC(=O)C2(C(N)=O)CC2)cc1", "note": "(stereo not given)", "AC50": "> 26 µM (inactive)"},
      {"molecule": "CC[N+](C)(CC)CCC(c1ccccc1)C1CCCCC1", "note": "(stereo not given)", "AC50": "> 26 µM (inactive)"},
      {"molecule": "CCc1cc(SC#N)cc(C)c1NC(=O)CCl", "AC50": "> 26 µM (inactive)"},
      {"molecule": "C/C(=N\\NC(=O)c1cc(-c2cccs2)nc2ccccc12)c1ccccn1", "AC50": "> 26 µM (inactive)"},
      {"molecule": "Cn1nc(C(C)(C)C)cc1C(=O)NCc1ccc2c(c1)OCO2", "AC50": "> 26 µM (inactive)"},
      {"molecule": "Fc1ccccc1N=C1NN=C(c2ccccc2)CS1", "AC50": "> 26 µM (inactive)"},
      {"molecule": "CNC[C@@H](Cc1ccccc1)NC[C@@H](CC1CCCCC1)NCCCc1ccccc1", "AC50": "> 26 µM (inactive)"},
      {"molecule": "O=C(Nc1cccc(Cl)c1)Nc1nnc(CSCCOc2ccc(Cl)cc2)s1", "AC50": "> 26 µM (inactive)"},
      {"molecule": "Cc1cc(/C=N/n2cnnc2)c(C)n1-c1ccc(OCc2ccc(Cl)cc2Cl)cc1", "AC50": "> 26 µM (inactive)"},
      {"molecule": "CCN1CCN(Cc2ccc(NC(=O)c3cc(NC(=O)c4cnn(-c5ccccc5)c4N)cc(OC)c3)cc2C(F)(F)F)CC1", "AC50": "> 26 µM (inactive)"},
      {"molecule": "CCc1ccc(S(=O)(=O)/N=C2\\C=C(Nc3ccc(O)cc3)C(=O)c3ccccc32)cc1", "AC50": "> 26 µM (inactive)"},
      {"molecule": "Cc1cccc(Oc2cc(NC(=O)c3ccccc3)cc([N+](=O)[O-])c2)c1", "AC50": "> 26 µM (inactive)"},
      {"molecule": "CCCNC(=O)c1ccc2c(=O)c(O)c(-c3ccc(Cl)c([N+](=O)[O-])c3)[nH]c2c1", "AC50": "3.22 µM"},
      {"molecule": "CN1/C(=C\\C(=S)NC(=O)c2cccc(Br)c2)C(C)(C)c2ccccc21", "AC50": "> 26 µM (inactive)"},
      {"molecule": "COc1cc(NC(=O)COc2cc(O)c3c(c2)OC(C)(C)CC3=O)cc(OC)c1OC", "AC50": "> 26 µM (inactive)"},
      {"molecule": "CCOC(=O)N1CCN(S(=O)(=O)c2ccc(C(=O)NNc3nc4ccc(Cl)cc4s3)cc2)CC1", "AC50": "> 26 µM (inactive)"},
      {"molecule": "O=C(/C=C/c1ccc(F)cc1)NC(=S)NNC(=O)c1cnccn1", "AC50": "> 26 µM (inactive)"},
      {"molecule": "COc1cc([N+](=O)[O-])ccc1NC(=O)CC1SC(=Nc2ccc(F)cc2)N(CCC2=CCCCC2)C1=O", "note": "(stereo not given)", "AC50": "> 26 µM (inactive)"},
      {"molecule": "CCCCCN=Cc1c(C)[nH]n(-c2nc3ccccc3s2)c1=O", "AC50": "> 26 µM (inactive)"},
      {"molecule": "COc1cc(OC)c(NC2=CC(=O)C(=O)c3ccccc32)cc1Cl", "AC50": "> 26 µM (inactive)"},
      {"molecule": "O=C(NCCCn1ccnc1)c1ccc(-c2ccccc2)cc1", "AC50": "> 26 µM (inactive)"},
      {"molecule": "CCCSc1nsc(NC(=O)Nc2ccc(F)cc2F)n1", "AC50": "> 26 µM (inactive)"},
      {"molecule": "CCCCCCn1c2c(c(=N)c3c1CCC3)CCC2", "AC50": "> 26 µM (inactive)"},
      {"molecule": "COc1ccc(-c2sc3ccccc3c2-c2ccc(OCCN(C)C)cc2)cc1", "AC50": "> 12 µM (inactive)"},
      {"molecule": "COc1cc(SC)ccc1C(=O)Nc1nc2ccccc2[nH]1", "AC50": "> 26 µM (inactive)"},
      {"molecule": "CC(C)CCCCCCNC(=S)Nc1ccc(S(=O)(=O)N2CCOCC2)cc1", "AC50": "> 26 µM (inactive)"},
      {"molecule": "CC(C)(C)Nc1nc(-c2ccccn2)nc2ccccc12", "AC50": "> 26 µM (inactive)"},
      {"molecule": "O=C(NCc1nc(-c2ccc(C(F)(F)F)cc2)no1)Nc1cc(Cl)cc(Cl)c1", "AC50": "> 26 µM (inactive)"},
      {"molecule": "CCCCC(=O)NC(c1ccc(Cl)cc1)c1ccc2cccnc2c1O", "note": "(stereo not given)", "AC50": "> 12 µM (inactive)"},
      {"molecule": "C/C(=N\\Nc1nc(C)cc(-c2ccccc2)n1)c1ccccc1", "AC50": "> 26 µM (inactive)"},
      {"molecule": "COc1cccc(/C=N/Nc2ncnc3scc(-c4ccccc4)c23)c1O", "AC50": "> 26 µM (inactive)"},
      {"molecule": "COc1cnc(-c2ccccn2)nc1Sc1ccccc1Cl", "AC50": "> 26 µM (inactive)"},
      {"molecule": "CCCCCCCCCCOC(=O)Cn1c(COc2ccc(OC)cc2)[n+](C)c2ccccc21", "AC50": "> 26 µM (inactive)"},
      {"molecule": "COc1ccc(C(=O)N/N=C/c2sc3ccccc3c2O)cc1", "AC50": "> 26 µM (inactive)"},
      {"molecule": "Cc1ccc2[nH]c3c(N4CCc5ccccc5C4)ncnc3c2c1", "AC50": "> 26 µM (inactive)"},
      {"molecule": "COc1ccc(-n2cc(-c3ccc(C)cc3)[n+]3c2SCC3)cc1", "AC50": "> 26 µM (inactive)"},
      {"molecule": "O=[N+]([O-])c1ccc(O)c(/C=N/Nc2nc3ccccc3[nH]2)c1", "AC50": "> 26 µM (inactive)"},
      {"molecule": "CCN(CC)c1ccc(/C=N/NC(=S)NCc2ccccc2)c(O)c1", "AC50": "> 26 µM (inactive)"},
      {"molecule": "Cc1cc(N2CCC(C)CC2)nc(NCc2ccccc2)n1", "AC50": "19.6 µM"},
      {"molecule": "COC1=CC(=O)[C@]2(C=C1OC)OC[C@@H]1Oc3c(ccc4c3C=CC(C)(C)O4)C(=O)[C@@H]12", "AC50": "> 26 µM (inactive)"},
      {"molecule": "COc1ccc(Br)cc1CN1CCN(Cc2c[nH]c3ccccc23)CC1", "AC50": "> 26 µM (inactive)"},
      {"molecule": "CCN(CC)C(=O)C1CCCN(C(=S)Nc2cccc3ccccc23)C1", "note": "(stereo not given)", "AC50": "> 26 µM (inactive)"},
      {"molecule": "N#C/C(N=Nc1ccccc1O)=N\\Nc1ccccc1O", "AC50": "> 26 µM (inactive)"},
      {"molecule": "Cc1nnsc1-c1onc(C)c1C(=O)Nc1cc(Cl)cc(Cl)c1", "AC50": "> 26 µM (inactive)"}
    ]}
  ]
}
